Results taken from patent publication US6998395B2, “Administration of estradiol metabolites for the treatment or prevention of obesity, metabolic syndrome, diabetes, and vascular and renal disorders” (University of Pittsburg,, priority 2001, dated 2006).

What was measured:
rats = conditions: Oparil et al., Circulation 95:1301 (1997); cited from earlier work
male ZSF1 rats [1] = assay: Treatment of male ZSF1 rats for 24 weeks with 2-hydroxyestradiol or 2-methoxyestradiol; format: in vivo, rat
Description: Male ZSF1 rats were treated continuously for 24 weeks with polyethylene glycol 400 (PEG 400) (Sigma, St. Louis, Mo.) or one of three doses of 2-hydroxyestradiol or 2-methoxyestradiol (Steraloids, Inc. Newport, R.I.) dissolved in PEG 400. The three doses were 1 ug/kg/hr, 3 ug/kg/hr or 10 ug/kg/hr. Female ZSF1 rats were treated continuously for 24 weeks with either PEG 400 or 10 ug/kg/hr of 2-hydroxyestradiol. Female ZSF1 rats were ovarectomized at 11 weeks of age. For all animals, both male and female, treatments with estradiol metabolites were begun at approximately 13 weeks of age. One group of male ZSF1 rats received only PEG 400 but were pair fed to receive the same daily food intake as the male ZSF1 rats treated with 10 ug/kg/hr 2-hydroxyestradiol. Treatment was administered via subcutaneous implanted pumps (Alzet Osmotic Pump, Model 2ML4, Alza Corporation, Palo Alto, Calif.). The study was designed to evaluate treatment effects and dose responses on body weight, food intake, water intake, urine output, urinary protein excretion, cholesterol levels, plasma glucose levels and glucose tolerance.
Stock solutions of both 2-hydroxyestradiol and 2-methoxyestradiol were made by dissolving the required amount of estradiol metabolite in PEG 400. This solution was diluted in PEG 400 to deliver the three required doses based on the mean weight of each treatment group and the stated volume delivery rate for each lot of osmotic pumps in the study. This stock solution was prepared fresh prior to each osmotic pump implantation in each group. The control solution of PEG 400 was created in the same manner.
All treatments were administered via a subcutaneously implanted osmotic pump (Alzet Osmotic Pump, Model 2ML4, Alza Corporation, Palo Alto, Calif.). Each lot of osmotic pumps were delivered with the stated rate of delivery and formulation concentrations were adjusted to ensure delivery of 1,3, or 10 ug/kg/hr based on the stated rate of delivery of each lot. Doses were adjusted for the mean weight of the animals in the treatment group obtained 24 hours prior to implantation of the osmotic minipump.
Animals were anesthetized prior to implantation of an osmotic minipump with halothane and oxygen (2.5 liter/min) delivered by a Fluotec 3 anesthetic device (Ohmeda, Steeton, UK). After lightly anesthetizing each animal, implantation was accomplished by shaving the back and creating a half-inch incision in which to insert the osmotic minipump. The incision was then closed with wound clips that were removed in seven days. Osmotic minipumps were replaced at 33-day intervals and each time a particular animal received an osmotic minipump, the insertion point was changed.
Metabolic cages (Nalgene, Rochester, N.Y.) were used in this study. Animals were placed in metabolic cages for 48 hours. The first 24-hour period was considered an acclimation period, while food and fluid intake and urine volume were measured during the second 24-hour period. Additionally, a tail vein sample was obtained to measure blood glucose, sodium, potassium, albumin and creatinine. The blood was further analyzed to assess creatinine clearance, fractional sodium excretion, fractional potassium excretion and fractional albumin excretion. In addition, the following criteria were also assessed while the animals were in the metabolic cages: body weight, feed intake, water intake, urine output, urinary protein, urinary albumin, urinary glucose, urinary sodium and urinary potassium.
Body weights were assessed 24 hours before pump implantation and those weights were used to calculate the dosage of drug or vehicle to be given to each animal based on the mean body weight of each group. Animals were weighed approximately once every two months prior to being placed in a metabolic cage.
Food intake was measured by filling the food containers with standard powder laboratory food up to a total weight of 250 grams. […]

male ZSF1 rats [2] = assay: as above; format: in vivo, rat; conditions: 10 ug/kg/hr, 28 weeks, versus control animals
[3] = Kernan et al., 2000; cited from earlier work
[4] = male, 10 ug/kg/hr, 24 weeks, versus control animals
[5] = male, 1, 3 or 10 ug/kg/hr s.c. osmotic pump, 24 weeks, versus control

For `C[C@]12CC[C@@H]3c4ccc(O)cc4CC[C@H]3[C@@H]1CC[C@@H]2O` [17β-estradiol], the “Body weight of rats” value (rats) is given as “reduction” and the Vascular protection (rats) is given as “vascular protection”.

For `COc1cc2c(cc1O)CC[C@@H]1[C@@H]2CC[C@]2(C)[C@@H](O)CC[C@@H]12` [2-methoxyestradiol, estra-1,3,5 (10)-triene-2-methoxy-3,17-diol (17β)], the “Leptin levels (FIG. 11)” value (male ZSF1 rats [1]; male, 10 ug/kg/hr, 20 weeks, versus control animals) was “clearly reduced”, the “24-hour urine output (FIG. 13)” value (male ZSF1 rats [1]; [4]) was “lower” and the “24-hour water intake (FIG. 12)” value (male ZSF1 rats [1]; [4]) was “lower”. For the same compound, the “Blood urea nitrogen (FIG. 10)” value (male ZSF1 rats [1]; male, 10 ug/kg/hr, 24 weeks, versus control groups) was “lower”, the “Plasma level of glucose after administration of 2 g/4 ml/kg glucose (oral glucose tolerance test, FIGS. 8 and 9)” value (male ZSF1 rats [1]; male, 10 ug/kg/hr, treated for 14 to 15 weeks, versus control groups) was “lower” and the “Body weight gain (FIGS. 4 and 5)” value (male ZSF1 rats [1]; [5]) was “less body weight gain”. The Food intake (male ZSF1 rats [1]; [5]) was “lower food intake”, the “Urinary protein excretion (FIG. 7)” value (male ZSF1 rats [1]; male, 1, 3 or 10 ug/kg/hr, after 24 weeks of treatment, versus control animals) was “lower” and the “Glycated hemoglobin (HbA1c) (FIG. 14)” value (male ZSF1 rats [2]) was “lower”.

For `CC(N)C(O)c1ccccc1` (stereo not drawn) [phenylpropanolamine], the “Adverse effect (stroke)” value [3] is listed as “causes stroke”.
